Results on 2 compounds are retold here after patent US10273241B2 (President and Fellows of Harvard College, priority 2013, dated 2019).

Like-named read-outs stand apart in the source and are kept apart here. Where only a bound is given, the exact number is not on record here.

For data set [1], the system named is MV4;11. Nature of the data set: Cell growth assay, MV4;11 AML cell line. It counts as cell-based, human. To be noted: Homo sapiens. In outline: (§1)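 Exponentially growing cells at 5,000-30,000 cells/well were added to serially diluted compound in triplicate (0.1% DMSO final). Cell number was estimated by CellTiter-Glo luminescence against a linear standard curve from a dilution series of the vehicle control. Day 7 and 10 counts are split-adjusted theoretical cell numbers.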

Data set [2] deals with K562. Nature of the data set: Cell growth assay, K562 cell line. It counts as cell-based, human. The following applies: Homo sapiens, K562, 240 h; day 10; lack of activity is taken as evidence of on-target selectivity. The method, then: (§2) For all other cell lines, compounds were serially diluted in medium and dispensed in triplicate in 96-well plates (0.1% DMSO final for assay) followed by the addition of exponentially growing cells at densities ranging from 5,000 to 30,000 cells/well. Cells were also seeded into 2 additional control wells containing vehicle (0.1% DMSO). After 3 days, the number of viable cells in one of the control wells was counted by hemocytometer or MOXI Z (Orflo) and an equal volume of cells for all wells were split-back with fresh vehicle/compounds such that the resulting seeding density for the control well was 5,000-30,000 cells/well, matching the initial seeding density in that well. This procedure was repeated on day 7 and day 10. % growth was calculated as % growth=100×(total estimated cell number in well−day 0 starting cell number)/(total average vehicle estimated cell number−day 0 starting cell number). To determine the estimated cell number in each well, cells that were counted in the control well were diluted 3-fold for an 8-point dilution series, and transferred to 384-well plates in duplicate, 20 μL per well. Cells in all other wells were diluted 4-fold and transferred to 384-well plates in duplicate, 20 μL per well. 20 μL of CellTiter-Glo (Promega) was subsequently added to all wells and luminescence was detected using a SPECTRAmax M3. The control well dilution series was fit to a linear regression and used as a standard for calculating the estimated cell number for each well. For days 7 and 10, total estimated cell number represents the split-adjusted theoretical cell number.

Data set [3] in a line: Human hepatocyte stability assay. Format: in vitro ADME. To be noted: 1 μM. The method, then: Test compounds were incubated in duplicate with cryopreserved hepatocytes at 37° C. The cells were thawed; viable cells counted, and equilibrated according to the supplier's directions. After 30 min equilibration at 37° C. with gentle agitation, the test compounds were added into the cells to give the desired final concentration of 1 μM. The cell suspension was incubated at 37° C. as above. At the indicated times, samples were removed and mixed with an equal volume of ice-cold Stop Solution (acetonitrile containing internal standards). Stopped reactions were incubated at least ten minutes on ice, and an additional volume of water was added. The samples were centrifuged to remove precipitated protein, and the supernatants were analyzed by LC/MS/MS to quantitate the remaining parent. Data were converted to % remaining by dividing by the time zero concentration value. Data were fit to a first-order decay model to determine half-life. From a plot of log (ln) peak area against time, the slope of the line was determined. Subsequently, half-life and intrinsic clearance were calculated using the equations below: Elimination rate constant (k)=(−slope); Half-life (T1/2) min=0.693/k; Intrinsic Clearance (CLint) (ml/min/million cells)=(V×0.693)/T1/2; V=incubation volume ml/number of cells.

In data set [4] the test system is MOLM-14. Nature of the data set: Cell growth assay, MOLM-14 AML cell line. Format: cell-based, human. To be noted: Homo sapiens. In outline: as §1
Data set [5] is described as follows: Liver microsome metabolic stability assay. It counts as in vitro ADME. The following applies: 1 micromolar, 0.5 mg/ml microsomal protein. The method, then: Test compounds were incubated at 37° C. with liver microsomes pooled from multiple donors at 1 micromolar in the presence of a NADPII regenerating system at 0.5 mg/ml microsomal protein. At 0, 5, 10, 20, 30, and 60 minutes, samples were removed, and mixed with cold acetonitrile containing an internal standard. After protein separation, samples were analyzed by LC/MS/MS for disappearance of the test compound using the ratio of peak area of analyte to internal standard. From the values, the microsome clearance was calculated. Species used were human, Sprague Dawley rat, beagle dog, and CD-1 mouse.

The nature of data set [6]: Liver microsome assay, metabolite formation. To be noted: metabolite is compound 24B. It counts as in vitro ADME, human. On the technique in general: Liver microsomes are vesicles of endoplasmic reticulum, rich in cytochrome P450 enzymes.
For data set [7], the system named is AML cells. The data set can be described thus: Comparison with cortistatin A: AML cell growth inhibition and CDK8 kinase inhibition. It counts as cell-based, human. To be noted: more potent than cortistatin A. The method, then: as §2, with “The control well dilution series was fit to a linear regression and used as a standard for calculating the estimated cell number for each well. For days 7 and 10, total estimated cell number represents the split-adjusted theoretical cell number.” left out

[8] abbreviates: MV4-11, 240 h, day 10, cells passaged, fresh compound added on days 3 and 7, read-out: MV 4;11 GI50 day 10.
[9] abbreviates: MOLM-14, 240 h, day 10, cells passaged, fresh compound added on days 3 and 7, read-out: MOL M14 G150 day 10.

On to `C[C@]12CC=C3C=C4CC[C@H]([N+](C)(C)[O-])CC45CC[C@]3(O5)[C@@H]1CC[C@@H]2c1ccc2ccncc2c1` [14BNO, 14B-N-Oxide], for which the GI50 in data set [1] (setting [8]) was 1 nM; in data set [2] it was more than 1000 nM; in data set [4] (setting [9]) it was 2 nM. In addition, the “half-life and clearance rate in hepatocytes” value in data set [3] was “acceptable half-life and clearance rate”. Moreover, the “metabolic stability in liver microsomes compared with 14B” value in data set [5] is listed as “increased stability”; in data set [5] (listed as N-oxide of compound 14B) it was “improved stability”.
Turning to `CN(C)[C@H]1CCC2=CC3=CC[C@]4(C)[C@@H](c5ccc6ccncc6c5)CC[C@H]4C34CC[C@]2(C1)O4` [14B, β-dimethylamine], the GI50 in data set [1] (setting [8]) is 4 nM; in data set [1] (MV4-11, day 7, fresh compound added on day 3, read-out: MV4;11 GI50 day 7), 8 nM; in data set [2], more than 1000 nM; in data set [4] (setting [9]), 3 nM; in data set [4] (MOLM-14, day 7, fresh compound added on day 3, read-out: MOL M14 GI50 day 7) it was 7 nM. For the same compound, the “metabolism in human liver microsomes” value in data set [6] is given as “undergoes N-monodemethylation at C3”. The “potency relative to cortistatin A in cell growth inhibition and in CDK8 kinase inhibition” value in data set [7] was “approximately 2 fold”.
